Laboratory results: patent publication US20260306633A1, “A COMBINATION THERAPY FOR CANCER TREATMENT” (Purdue Research Foundation, priority 2023, published 2026)
Several values for one entry are separate records, joined by “and”; a condition that tells them apart may be missing. Equal entries are not always repeated.

Legend:
TNBC cells [1] = test: Combination index (CI) of binary therapy, Chou-Talalay method, CompuSyn software; format: cell-based, human; details: for combination index (CI) with cisplatin / synergism vs additive vs antagonism effect with cisplatin: PS 50 nM + cisplatin 25 μM; for combination index (CI) with doxorubicin / synergism vs additive vs antagonism effect with doxorubicin: PS 50 nM + doxorubicin 500 nM; for combination index (CI) with fluorouracil / synergism vs additive vs antagonism effect with fluorouracil: PS 50 nM + fluorouracil 25 μM; for combination index (CI) with paclitaxel / synergism vs additive vs antagonism effect with paclitaxel: PS 50 nM + paclitaxel 50 nM
Description: (§1) The calculated CI values are based on 50 nM concentration for the PSs, 50 nM paclitaxel, 500 nM doxorubicin, 25 μM cisplatin, 25 μM fluorouracil, and 500 nM methotrexate.
(§2) Cells were grown to confluence in a 96-well plate (9×10^3 cells/well) and co-treated for 24 hours with synthesized photosensitizers (PSs) and chemotherapeutic agents of varying concentrations ranging from 5 nM to 50 μM) in growth media from a stock solution of 10 mM in DMSO (dimethyl sulfoxide, Fisher). After 24-hour treatment, old growth media containing the PSs or compounds were aspirated out and replaced with fresh media. Plates were then positioned below a non-coherent LumaCare LC-122 650 nm light source for 1 minute at an energy fluence rate of 0.96 J/cm^2 and a power of 16 mW/cm^2 (measured using a Newport optical power meter Model 840). Unirradiated cells served as control samples. The following day, cells were washed with pre-warmed PBS, and 11MTT (3-[4,5-dimethyl-thiazol-2-yl]-2.5-diphenyltetrazolium bromide, Sigma, 0.3 mg/mL) in PBS was added to each well. Samples were allowed to incubate for additional 2 hours, after which dark blue crystals formed. DMSO was added to each well and plates were shaken at room temperature for 1 hour to dissolve the purplish-blue formazan crystals. Absorbance values at 570 nm were measured on a microplate reader (BioRad 550). Cell survival was calculated based on the absorbance of the untreated cells alone (as control) and were directly proportional to the number of viable cells in culture. Results were reported as the mean±SD of triplicate measurements.
The combination index (CI) for the binary treatment of TNBC cells with a PS and a chemotherapeutic drug was calculated based on the Chou-Talalay method using CompuSyn software. […] The unified dynamics algorithm uses a minimum of dose-data points to fit the general MAL theory.
as §1

TNBC BT-549 cells = test: Cell survival / cell inhibition (MTT cell cytotoxicity assay) after 24 h treatment with photosensitizer and/or chemotherapeutic agent, dark or light-irradiated; format: cell-based, human; details: for cell inhibition (%), combination with cisplatin / cell inhibition (%), combination with doxorubicin / cell inhibition (%), combination with fluorouracil / cell inhibition (%), combination with methotrexate / cell inhibition (%), combination with paclitaxel: light 0.96 J cm−2; for cell inhibition (%), combination with methotrexate: PS 100 nM + methotrexate 500 nM; for cytotoxicity in the absence of light, PS alone: PS 500 nM; for cell viability reduction (difference) vs PS alone: PS at lower concentration (CPA: 50 nM) + methotrexate 500 nM
Description: Human mammary epithelial carcinoma cell lines purchased from the American Type Culture Collection BT-549 (ATCC HTB-122) were cultured according to ATCC protocol. BT-549 cells were grown in RPMI 1640 containing 0.023 IU/mL insulin and supplemented with 10% fetal bovine serum (FBS). Cells were grown to 80-90% confluence in 75-cm^2 culture flasks (Corning) for 4-5 days in a humidified incubator (Fisher Scientific Isotemp) with 5% CO2 at 37° C. During the incubation period, growth media was changed once with fresh pre-warmed media (pH 7.2). To harvest the cells, old growth media was aspirated out, and 3 mL 0.25% trypsin solution (Thermo Sci Hyclone) were added. The cells were incubated for 5 minutes, and the cell pellet after centrifugation was resuspended in 3 mL media, broken up gently, then 1 mL of suspended cells was transferred into a new T75 cell culture flask containing pre-warmed media (20 mL) for further culturing.
as §2
The unmetallated PS and the indium complexes were used.
Light dose corresponds to an energy fluence rate of 0.96 J/cm^2 used.
Power of 16 mW/cm^2 used.
Cell inhibition in TNBC cells is based on the cell survival (MTT) assay of the binary therapy, blending the effect of PDT and chemotherapeutic agents. […] MePheo serves as a control compound. TNBC cells were then exposed to light after binary treatment for 24 hours.

human TNBC BT-549 cells = test: Fluorescence microscopy (Hoechst 33258) of cell morphology / cell death pathway; format: cell-based
Description: Grayscale images of cells stained with Hoechst 33258. Morphology of (A) untreated unirradiated cells, sham control; (B) illuminated cells; (C-E) cells treated with: PSs (InCLA, CBTN, and CPA) and paclitaxel in the dark; (F-H) PSs, followed by 1 minute light exposure; (I) paclitaxel unirradiated; (J-L) PSs and paclitaxel in the dark; (M-O) PSs co-treated with paclitaxel, then light-exposed; (P-Q) PSs co-treated with doxorubicin, then irradiated; (R) PSs and cisplatin, dark; (S-T) PSs and cisplatin, irradiated; (U) fluorouracil, dark; (V) InCLA with fluorouracil in the dark; (W) light-exposed and, (X-Y) PSs with methotrexate with light. Inserts indicate enlarged view. […] Light dose in 1 minute=0.96 J cm^−2; in 30 seconds=0.48 J cm^−2. Concentrations: PSs=50 nM; paclitaxel=50 nM; doxorubicin=500 nM; cisplatin=25 μM; fluororuracil=25 μM; and, methotrexate=500 nM.
Cells (1 mL aliquots) obtained from a diluted cell suspension were seeded into each well (1.7 cm^2, 8×10^3 cells/well) of a 4-well culture slide (BD Biosciences) and grown to confluence in 5% CO2 at 37° C. for 3-4 days for attachment to the substratum. After aspirating the old growth media, 1 mL of the photosensitizer and chemotherapeutic agents (with appropriate concentrations) in fresh pre-warmed media at 37° C. was added to each well. After compound treatment for 24 hours, cells were washed twice with 1 mL fresh growth media, and then irradiated with light using LumaCare LC-122 as described above. Cells were stained in the dark with Hoechst 33258 (Molecular Probes) in pre-warmed media for 10 minutes at 37° C., washed twice with filtered PBS, then fixed with filtered paraformaldehyde for 15 minutes in the incubator. After thorough liquid aspiration, the wells were removed and allowed to air dry in the dark for 1 hour. Slides were protected with coverslips, whose edges were sealed using clear fast-drying nail polish and allowed to dry at room temperature in the dark for 30 minutes. Images were recorded using fluorescence microscopy (DAPI for Hoechst 350-390 nm excitation and 460-490 nm emission filters) using an upright fluorescence microscope with Retiga imaging 2000R (Nikon Optiphot-2, 20× and 40×) and an image processing Nikon NIS-Elements V4.0 Qimaging software.
To determine the preferred cell death pathway for the binary chemophotodynamic therapy, tracking the hallmarks of apoptosis or necrosis was accomplished using a nuclear stain to monitor chromatin condensation and cellular contraction. TNBC cells are spindle-shaped and nearly round with intact cytoplasm, diffused chromatin, distinct cellular membrane, and large oval nuclei staining dark blue with the nuclear stain (FIG. 18A-B).

TNBC cells [2] = test: Combination index (CI) of binary therapy, Chou-Talalay method, CompuSyn software; format: cell-based, human; details: PS 50 nM + methotrexate 500 μM (footnote 500 nM)
[3] = PS 100 nM + cisplatin 25 μM, 24 h
[4] = PS 100 nM + cisplatin 25 μM, light
[5] = PS 100 nM + doxorubicin 500 nM, 24 h
[6] = PS 100 nM + fluorouracil 25 μM, 24 h
[7] = PS 100 nM + paclitaxel 50 nM, 24 h

Structure (SMILES) | combination index (CI) with cisplatin (TNBC cells [1]) | synergism vs additive vs antagonism effect with cisplatin (TNBC cells [1]) | combination index (CI) with doxorubicin (TNBC cells [1]) | synergism vs additive vs antagonism effect with doxorubicin (TNBC cells [1]) | combination index (CI) with fluorouracil (TNBC cells [1]) | synergism vs additive vs antagonism effect with fluorouracil (TNBC cells [1]) | combination index (CI) with paclitaxel (TNBC cells [1]) | synergism vs additive vs antagonism effect with paclitaxel (TNBC cells [1]) | cell inhibition (%), combination with cisplatin (TNBC BT-549 cells; [3]) [%] | effect of added cisplatin compared to cisplatin-treated cell viability (TNBC BT-549 cells; [4]) | cell inhibition (%), combination with doxorubicin (TNBC BT-549 cells; [5]) [%] | cell inhibition (%), combination with fluorouracil (TNBC BT-549 cells; [6]) [%] | cell inhibition (%), combination with methotrexate (TNBC BT-549 cells; 24 h) [%] | cell inhibition (%), combination with paclitaxel (TNBC BT-549 cells; [7]) [%] | cytotoxicity in the absence of light, PS alone (TNBC BT-549 cells; dark) | cell viability reduction (difference) vs PS alone (TNBC BT-549 cells; light) [%] | combination index (CI) with methotrexate (TNBC cells [2]) | synergism vs additive vs antagonism effect with methotrexate (TNBC cells [2]) | also measured
C=Cc1c(C)c2cc3nc(c(CC(=O)OC)c4[nH]c(cc5nc(cc1[nH]2)C(C)=C5CC)c(C)c4C(=O)NCCCCCCNC(=O)CCNC(=O)[C@H](O)C(C)(C)CO)[C@@H](CCC(=O)OC)[C@@H]3C [CPA, chlorin pantothenic acid conjugate] | 1.30 | (MA) (MA (1.20-1.45), moderate antagonism) | 1.52 | (A) (A (1.45-3.3), antagonism) | 0.45 | (S) (S (0.3-0.7), synergism) | 0.41 | (S) (S (0.3-0.7), synergism) | 87 | reduced cell survival | 73 | 43 | 33 | 63 | No cytotoxicity | 33 | 0.50 | (S) (S (0.3-0.7), synergism) | ranking of combination partners based on CI, decreasing order (TNBC cells [1]; PS 50 nM + drug): paclitaxel>fluorouracil>methotrexate; cell viability, co-treatment with methotrexate upon light (TNBC BT-549 cells; PS 50 nM + methotrexate 500 nM, light, 1440 min): 66%; cell survival, PS alone (TNBC BT-549 cells; PS 50 nM, light, 1440 min): 99%; cell survival, co-treatment with cisplatin upon light (TNBC BT-549 cells; PS 100 nM + cisplatin 25 μM, light, 1440 min): 13%; cell survival, co-treatment with doxorubicin in the dark (TNBC BT-549 cells; PS 100 nM + doxorubicin 500 nM, 24 h, dark): 75%; cell survival, co-treatment with doxorubicin upon light (TNBC BT-549 cells; PS 100 nM + doxorubicin 500 nM, light, 1440 min, 0.1 µM): 37% and 27%; best combination partner (TNBC BT-549 cells; PS 100 nM + drug, light): cisplatin is the best, next doxorubicin, then paclitaxel; effect of added fluorouracil compared to fluorouracil-treated cell viability (TNBC BT-549 cells; PS 100 nM + fluorouracil 25 μM, light): reduced cell survival; cell survival, co-treatment with fluorouracil upon light (TNBC BT-549 cells; PS 100 nM + fluorouracil 25 μM, light, 1440 min): 57%; cell survival, co-treatment with paclitaxel upon light (TNBC BT-549 cells; PS 100 nM + paclitaxel 50 nM, light, 1440 min): 37%; chemophotodynamic potency against TNBC cells, summary (TNBC BT-549 cells; PS 100 nM alone or in combination, light): better activity against TNBC cells than the starting compound MePheo; cell survival, PS alone (TNBC BT-549 cells; PS 100 nM, light 0.96 J/cm^2, 1440 min, 0.1 µM): 75.3% and 75%; combination therapy vs monotherapy (cisplatin) (TNBC BT-549 cells; PS + cisplatin, light): better photodynamic effect when co-treated with cisplatin than PS-treatment alone; combination therapy vs monotherapy (doxorubicin) (TNBC BT-549 cells; PS + doxorubicin, light): better photodynamic effect when co-treated with doxorubicin than PS-treatment alone; combination therapy vs monotherapy (fluorouracil) (TNBC BT-549 cells; PS + fluorouracil, light): better photodynamic effect when co-treated with fluorouracil than PS-treatment alone; combination therapy vs monotherapy (methotrexate) (TNBC BT-549 cells; PS + methotrexate, light): best compared to monotherapy alone and with the other PSs used; cell morphology, PS co-treated with paclitaxel (human TNBC BT-549 cells; PS 50 nM + paclitaxel 50 nM, light (FIG. 18M-O)): shrunk cells and chromatin fragmentation are evident; cell morphology, PS-treated then light (human TNBC BT-549 cells; PS 50 nM, 24 h, light (FIG. 18F-H)): reduced cellular volume and nuclear density; preferred mode of cell death (human TNBC BT-549 cells; PS co-treated with paclitaxel or cisplatin): apoptosis
C=Cc1c(C)c2cc3nc(c4c5[nH]c(cc6nc(cc1[nH]2)C(C)=C6CC)c(C)c5C(=O)[C@@H]4C(=O)OC)[C@@H](CCC(=O)OC)[C@@H]3C [MePheo, methyl pheophorbide, reference compound] | 6.10 | (SA) (SA (3.3-10), strong antagonism) | 6.37 | (SA) (SA (3.3-10), strong antagonism) | 17.96 | (VSA) (VSA (>10), very strong antagonism) | 13.27 | (VSA) (VSA (>10), very strong antagonism) | 39 | reduced cell survival | 36 | 34 | 40 | 55 | No cytotoxicity | 10 | 7.79 | (SA) (SA (3.3-10), strong antagonism) | cell survival, co-treatment with fluorouracil in the dark (TNBC BT-549 cells; PS 100 nM + fluorouracil 25 μM, 24 h, dark): 61%; cell survival, co-treatment with paclitaxel in the dark (TNBC BT-549 cells; PS 100 nM + paclitaxel 50 nM, 24 h, dark): 46%
